According to ChEMBL document CHEMBL1201862, “PubChem BioAssay data set” (2004):
Active and inactive are the calls of the source.

Columns and labels:
[1] = target: T1, Heat shock factor protein 1 (Mus musculus, UniProt P38532); assay: inhibition of MG132-induced HSE-luciferase signal, confirmation, cell-based, NIH3T3, luminescence, dose retest (AID 2382); type: functional;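 note: NIH3T3 fibroblasts with HSF1-driven luciferase reporter stressed by proteasome inhibitor MG132; luminescence from HSF1-driven luciferase expression after 8 hours of MG132 stress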
T1 sequence (P38532 whole entry): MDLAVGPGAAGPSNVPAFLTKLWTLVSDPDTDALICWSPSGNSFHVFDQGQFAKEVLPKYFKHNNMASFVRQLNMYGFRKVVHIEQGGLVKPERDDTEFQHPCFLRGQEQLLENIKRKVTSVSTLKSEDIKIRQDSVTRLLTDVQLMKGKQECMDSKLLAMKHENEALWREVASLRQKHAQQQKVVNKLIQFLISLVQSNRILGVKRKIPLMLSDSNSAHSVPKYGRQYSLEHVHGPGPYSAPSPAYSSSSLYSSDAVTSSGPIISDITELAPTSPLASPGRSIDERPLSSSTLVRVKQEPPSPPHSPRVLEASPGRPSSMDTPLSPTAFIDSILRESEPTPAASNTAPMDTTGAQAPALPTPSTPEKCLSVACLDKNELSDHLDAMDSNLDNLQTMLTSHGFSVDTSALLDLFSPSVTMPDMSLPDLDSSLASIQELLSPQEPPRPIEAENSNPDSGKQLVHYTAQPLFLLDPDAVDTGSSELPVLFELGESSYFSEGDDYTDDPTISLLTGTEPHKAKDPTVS

[2] = HEp-2 cell cytotoxicity, dose response, cytotoxicity control for RSV inhibitor project, HTS (AID 2410); type: functional; conditions: human respiratory syncytial virus
[3] = target: T2, Cytochrome P450 1A2 (Homo sapiens, UniProt P05177);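 note: PubChem cytochrome P450 panel assay, CYP1A2 panel member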
T2 sequence (P05177 whole entry): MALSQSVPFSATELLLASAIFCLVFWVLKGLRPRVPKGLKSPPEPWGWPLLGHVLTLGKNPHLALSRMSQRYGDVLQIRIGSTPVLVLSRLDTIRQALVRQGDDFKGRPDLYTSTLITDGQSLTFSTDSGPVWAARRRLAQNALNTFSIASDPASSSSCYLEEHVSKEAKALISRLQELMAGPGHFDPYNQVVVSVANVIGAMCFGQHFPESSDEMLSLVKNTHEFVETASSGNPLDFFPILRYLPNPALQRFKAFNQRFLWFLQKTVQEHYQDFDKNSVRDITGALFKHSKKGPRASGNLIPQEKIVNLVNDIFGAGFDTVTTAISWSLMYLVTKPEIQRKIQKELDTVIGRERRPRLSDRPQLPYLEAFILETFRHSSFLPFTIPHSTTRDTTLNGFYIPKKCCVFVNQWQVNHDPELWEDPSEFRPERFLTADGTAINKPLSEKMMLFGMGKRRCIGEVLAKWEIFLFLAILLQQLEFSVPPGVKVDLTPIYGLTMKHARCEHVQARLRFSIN

[4] = target: Cytochrome P450 2C19 (Homo sapiens, UniProt P33261); assay: Cytochrome panel assay with activity outcomes. Panel member name: p450-cyp2c19 Compounds with AC50 equal or less than 10 uM are considered active; type: functional
Sequence of Cytochrome P450 2C19 (P33261 whole entry): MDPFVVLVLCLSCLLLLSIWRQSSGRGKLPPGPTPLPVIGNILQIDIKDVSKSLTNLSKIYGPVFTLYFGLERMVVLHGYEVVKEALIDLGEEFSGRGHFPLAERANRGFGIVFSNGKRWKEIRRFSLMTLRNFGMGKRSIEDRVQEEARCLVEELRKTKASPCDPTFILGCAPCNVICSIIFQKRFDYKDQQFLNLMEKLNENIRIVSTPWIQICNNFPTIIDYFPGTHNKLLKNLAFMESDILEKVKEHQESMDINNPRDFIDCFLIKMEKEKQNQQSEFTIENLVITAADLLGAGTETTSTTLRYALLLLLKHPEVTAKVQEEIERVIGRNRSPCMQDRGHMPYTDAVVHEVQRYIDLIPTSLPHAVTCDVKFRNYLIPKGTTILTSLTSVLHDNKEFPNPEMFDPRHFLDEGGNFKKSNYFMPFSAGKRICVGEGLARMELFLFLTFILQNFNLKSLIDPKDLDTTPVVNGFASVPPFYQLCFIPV

[5] = target: Cytochrome P450 3A4 (Homo sapiens, UniProt P08684);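 note: CYP3A4 tested as one member of a cytochrome P450 panel screen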
Sequence of Cytochrome P450 3A4 (P08684 whole entry): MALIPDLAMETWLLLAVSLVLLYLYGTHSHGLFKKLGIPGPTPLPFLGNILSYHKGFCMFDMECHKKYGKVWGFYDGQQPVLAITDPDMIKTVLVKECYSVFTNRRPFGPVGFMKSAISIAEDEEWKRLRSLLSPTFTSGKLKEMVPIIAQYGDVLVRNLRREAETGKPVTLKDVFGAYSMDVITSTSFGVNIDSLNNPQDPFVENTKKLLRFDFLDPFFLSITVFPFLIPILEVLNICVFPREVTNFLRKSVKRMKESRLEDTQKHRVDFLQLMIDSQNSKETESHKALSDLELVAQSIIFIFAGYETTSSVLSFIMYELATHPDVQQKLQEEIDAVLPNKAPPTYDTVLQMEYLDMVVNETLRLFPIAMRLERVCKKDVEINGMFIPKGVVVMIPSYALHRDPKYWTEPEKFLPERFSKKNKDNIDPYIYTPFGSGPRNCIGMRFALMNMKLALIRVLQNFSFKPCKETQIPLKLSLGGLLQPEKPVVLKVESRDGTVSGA

[6] = target: Cytochrome P450 2C9 (Homo sapiens, UniProt P11712)
Sequence of Cytochrome P450 2C9 (P11712 whole entry): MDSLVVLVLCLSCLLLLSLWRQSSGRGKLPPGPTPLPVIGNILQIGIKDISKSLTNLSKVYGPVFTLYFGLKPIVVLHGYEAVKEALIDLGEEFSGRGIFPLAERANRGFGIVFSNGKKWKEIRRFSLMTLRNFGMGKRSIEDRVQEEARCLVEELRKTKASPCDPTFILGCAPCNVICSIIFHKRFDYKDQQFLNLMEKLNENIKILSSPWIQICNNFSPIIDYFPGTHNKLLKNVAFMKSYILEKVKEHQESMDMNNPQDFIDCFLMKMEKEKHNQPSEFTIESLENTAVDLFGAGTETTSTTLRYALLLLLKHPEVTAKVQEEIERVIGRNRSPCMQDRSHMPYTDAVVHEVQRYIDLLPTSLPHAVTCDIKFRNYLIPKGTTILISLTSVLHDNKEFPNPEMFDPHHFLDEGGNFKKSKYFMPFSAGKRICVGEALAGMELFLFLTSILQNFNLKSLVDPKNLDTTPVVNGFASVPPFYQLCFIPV

[7] = target: Paired box protein Pax-8 (Homo sapiens, UniProt Q06710); assay: inhibitors of PAX8-driven TPO luciferase reporter, dose response, RMG-I cells, cherry-pick (AID 687027); type: functional, cell-based;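 note: luciferase reporter driven by Pax8 target thyroperoxidase promoter measured by SteadyGlo luminescence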
Sequence of Paired box protein Pax-8 (Q06710 whole entry): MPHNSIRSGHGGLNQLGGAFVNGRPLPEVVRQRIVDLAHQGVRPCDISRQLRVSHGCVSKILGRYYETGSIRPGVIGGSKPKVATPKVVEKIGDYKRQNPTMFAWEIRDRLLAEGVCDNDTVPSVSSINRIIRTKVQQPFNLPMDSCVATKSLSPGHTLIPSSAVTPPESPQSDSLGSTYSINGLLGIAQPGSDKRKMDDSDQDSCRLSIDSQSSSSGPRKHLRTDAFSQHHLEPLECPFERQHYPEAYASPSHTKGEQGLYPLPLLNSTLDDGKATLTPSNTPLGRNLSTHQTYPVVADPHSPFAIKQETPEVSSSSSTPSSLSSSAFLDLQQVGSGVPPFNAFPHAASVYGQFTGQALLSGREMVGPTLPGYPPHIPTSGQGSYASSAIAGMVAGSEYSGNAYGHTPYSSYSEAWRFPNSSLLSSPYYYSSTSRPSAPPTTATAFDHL

[8] = Luminescence Cell-Based Dose Retest to Confirm Inhibitors of Cancer Stem Cells. [Related pubchem assays (depositor defined):AID2717, AID2721]; type: functional; conditions: Homo sapiens
[9] = tested on: Streptococcus sp. 'group A'; assay: growth inhibition of control SK(-) GAS strain, dose response, counter-screen for streptokinase expression inhibitor project, luminescence, kanamycin, BacTiterGlo, confirmation (AID 1900); type: functional, organism-based
[10] = tested on: Streptococcus; assay: Group A Streptococcus viability loss, dose response, counter-screen for streptokinase expression inhibitor project, luminescence, BacTiterGlo (AID 1915); type: functional, organism-based;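 note: potency for reduction of bacterial viability or growth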
[11] = inhibitors of intracellular T. cruzi replication, confirmation, NIH3T3 host cells, beta-gal luminescence (AID 2044); type: functional, cell-based;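 note: intracellular parasites grown in NIH/3T3 mouse fibroblasts as host cells; luminescent beta-galactosidase reporter signal from transgenic T. cruzi replicating inside host cells; inhibitors lower the luminescence signal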
[12] = cytotoxicity toward NIH3T3 fibroblasts, dose response, counter-screen, cell-based, ATP luminescence, mouse fibroblasts (AID 2010); type: functional;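 note: cells exposed to compound for about 90 hours before reading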
[13] = tested on: INS1; assay: beta cell apoptosis inhibitors, cytokine rescue, dose response, luminescence, retest (AID 449756); type: functional, cell-based; conditions: Rattus norvegicus;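 note: cell death triggered by IL-1 beta plus TNF-alpha plus IFN-gamma mixture; protective hits raise ATP signal compared with cytokine alone wells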

Compound: Cc1ccc(S(=O)(=O)N2CCC(C(=O)N[C@@H](Cc3ccccc3)C(=O)O)CC2)cc1
- EC50 [1]: > 195 µM (not active)

Compound: Cc1cc(C)n(-c2ccc(NC(=O)C3CCCCN3C(=O)c3ccoc3C)cc2)n1 (stereo not drawn)
- EC50 [1]: > 195 µM (not active)

Compound: N#CC1(c2ccc(NC(=O)c3ccccc3F)cc2)CCCC1
- CC50 [2]: > 50 µM (active)

Compound: O=C(C1=C[C@H](c2ccc(C(F)(F)F)cc2)C[C@H](OCCCCO)O1)N1CCN(Cc2ccc3c(c2)OCO3)CC1
- EC50 [1]: > 195 µM (not active)

Compound: Cn1c(SCc2ccccc2Cl)nc2c1c(=O)[nH]c(=O)n2C
- CC50 [2]: > 50 µM (active)

Compound: COc1ccccc1N1CCN(C(=O)c2sc3ncnc(N4CCN(c5ccccn5)CC4)c3c2C)CC1
- CC50 [2]: 12.2 µM (active)

Compound: COCCn1c(=O)c(-c2ccc(F)cc2)nc2cnc(Nc3cccc(OC)c3)nc21
- AC50 [3]: 3.16 µM (inconclusive)

Compound: Cn1ccnc1C1CCCCN1C(=O)c1cc(COc2ccc(F)cc2Cl)on1 (stereo not drawn)
- EC50 [1]: > 195 µM (not active)

Compound: COC(=O)N1CCC2(CCCN(c3ccncc3)C2)CC1
- AC50 [4]: inconclusive

Compound: Cc1nnc(-c2cnn(-c3ccccc3)c2N)n1Cc1ccncc1
- AC50 [3]: 11.2 µM (inconclusive)
- AC50 ([4]; read-out: AC50): 11.2 µM (inconclusive)
- AC50 [5]: 15.8 µM (inconclusive)

Compound: Cc1cccc(OC2(c3ccccc3)OC(=O)c3ccccc32)c1C (stereo not drawn)
- AC50 [3]: 14.1 µM (inconclusive)
- AC50 [5]: 28.2 µM (inconclusive)

Compound: Cc1cccc(NC(=NS(=O)(=O)c2ccccc2)C(F)(F)F)c1
- AC50 ([4]; read-out: AC50): 22.4 µM (inconclusive)
- AC50 [5]: 25.1 µM (inconclusive)

Compound: C[C@@H](CN1CCC(Cc2ccccc2)CC1)[C@H](O)c1ccc(O)cc1
- AC50 [3]: 12.6 µM (inconclusive)

Compound: CN(Cc1cc(Br)cc(Br)c1O)Cc1c(O)ccc2ccccc12
- AC50 [3]: 1.26 µM (inconclusive)
- AC50 [6]: 3.16 µM (inconclusive)
- AC50 [5]: 3.98 µM (inconclusive)

Compound: CCCCn1cnc2c(cnn2-c2ccc(F)cc2)c1=O
- AC50 ([4]; read-out: AC50): 2.51 µM (inconclusive)

Compound: C[C@@H]1CCCCO[C@H](CN(C)C(=O)C2CCCCC2)[C@@H](C)CN([C@@H](C)CO)C(=O)c2cc(NC(=O)Nc3ccccc3)ccc2O1
- AC50 [7]: 5.39 µM (active)

Compound: CC(=O)NC(=S)Nc1cccc(S(=O)(=O)NC2=NCCC2)c1
- EC50 [1]: > 195 µM (not active)

Compound: COC(=O)c1c(-c2ccc(C)cc2)csc1NC(=O)c1c(-c2ccccc2)noc1C
- CC50 [2]: 26.5 µM (active)

Compound: O=C(O)/C=C\c1ccc(Cn2ccnc2)cc1
- AC50 [3]: 12.6 µM (inconclusive)

Compound: COc1ccc(-n2c(=O)c(C)nc3cnc(Nc4ccccc4)nc32)cc1
- AC50 [3]: 5.01 µM (inconclusive)
- AC50 [6]: 20 µM (inconclusive)

Compound: C/C(N)=C(/C#N)C(=O)CSc1nnc(COc2cc(C)ccc2C)o1
- AC50 [3]: 4.47 µM (inconclusive)
- AC50 [6]: 7.08 µM (inconclusive)

Compound: CC1CCCCN1c1cc(C#N)c(C#N)cc1[N+](=O)[O-] (stereo not drawn)
- AC50 [3]: 3.16 µM (inconclusive)
- AC50 [8]: 0.174 µM (active)
- AC50 [6]: 5.01 µM (inconclusive)
- AC50 [5]: 15.8 µM (inconclusive)

Compound: O=C(Nc1ccc(N2CCCCC2)c(Cl)c1)c1nc[nH]n1
- CC50 [2]: 16.6 µM (active)

Compound: O=C(CSc1nc2ccccc2n1S(=O)(=O)c1ccccc1)N1CCCCC1
- EC50 [1]: > 195 µM (not active)

Compound: O=C(Nc1cccc2ncccc12)c1cccc(F)c1
- AC50 [3]: 15.8 µM (inconclusive)
- AC50 [5]: 22.4 µM (inconclusive)

Compound: O=C(c1ccco1)N1CCC2(CCCN(c3ccccn3)C2)CC1
- AC50 [3]: 10 µM (inconclusive)
- AC50 [5]: 15.8 µM (inconclusive)

Compound: Cc1noc(C)c1C(=O)N1CCC(C(=O)c2ccccc2)CC1
- EC50 [1]: > 195 µM (not active)

Compound: COc1ccc(N(CC(=O)NC2CCCCCCC2)S(=O)(=O)c2c(C)nn(C)c2C)cc1
- EC50 [1]: > 195 µM (not active)

Compound: COCCNC(=O)C(c1ccc(C)o1)N(CC1CCCO1)C(=O)Cn1nnc2ccccc21 (stereo not drawn)
- AC50 [3]: 12.6 µM (inconclusive)
- AC50 [4]: inconclusive
- AC50 [5]: 15.8 µM (inconclusive)

Compound: CN(Cc1c(F)cccc1Cl)C(=O)CCc1c[nH]c2ccccc12
- CC50 [2]: 30 µM (active)

Compound: COc1ccc(-c2nn(-c3ccccc3)cc2/C=N/NS(=O)(=O)c2ccccc2)cc1
- CC50 [2]: 17.8 µM (active)

Compound: Cc1ccc(NC(S)=NCc2ccc3[nH]c4c(c3c2)CCCC4)cc1
- CC50 [2]: 9.29 µM (active)

Compound: CCc1ccccc1S(=O)(=O)Cc1ccc(C(=O)N2CCN(c3ccccc3OC)CC2)o1
- CC50 [2]: > 50 µM (active)

Compound: CCCCCn1c(SCc2ccncc2)nc2cc(C(=O)NCc3ccco3)ccc2c1=O
- CC50 [2]: 48.3 µM (active)

Compound: COc1cc(OC)cc(C(=O)Nc2nnc(N=C(S)Nc3ccccc3)s2)c1
- CC50 [2]: 8.31 µM (active)
- EC50 [9]: 9.71 µM (active)
- EC50 [10]: 30.7 µM (active)

Compound: O=C1NN=C(c2ccc(Cl)cc2)CC1c1cccc(Cl)c1 (stereo not drawn)
- CC50 [2]: 30.2 µM (active)

Compound: C[C@@H]1CN([C@H](C)CO)C(=O)c2cc(NC(=O)Nc3ccc(C(F)(F)F)cc3)ccc2O[C@@H](C)CCCCO[C@H]1CN(C)S(=O)(=O)c1ccc(F)cc1
- AC50 [7]: 6.53 µM (active)

Compound: Cc1cc(C)c2nc(C(F)(F)F)c(C#N)c(N)c2c1
- EC50 [1]: 3.15 µM (active)

Compound: CN(Cc1ccco1)c1ccnc(-c2ccoc2)n1
- AC50 ([4]; read-out: AC50): 25.1 µM (inconclusive)

Compound: c1ccc(Cn2c[n+](Cc3ccccc3)cn2)cc1
- EC50 [1]: > 195 µM (not active)

Compound: O=C(N1CCCCC1)N1CCN(S(=O)(=O)c2ccccc2)CC1
- EC50 [1]: 32.8 µM (active)

Compound: N=c1c(-c2nc3ccccc3[nH]2)cc(C(=O)c2cccs2)nn1-c1ccccc1
- CC50 [2]: 15.3 µM (active)
- EC50 [11]: 0.39 µM (active)
- EC50 [9]: 1.51 µM (active)
- EC50 [10]: 5.63 µM (active)
- EC50 [12]: > 60 µM (not active)

Compound: CCCn1nc(Oc2nc(NCC)nc(NCC)n2)ccc1=O
- AC50 [3]: 15.8 µM (inconclusive)
- AC50 ([4]; read-out: AC50): 31.6 µM (inconclusive)

Compound: CCCCN(C)CCNC(=O)c1cc2c(-c3ccccc3F)nn(C)c2s1
- EC50 [1]: > 195 µM (not active)
- AC50 [13]: > 260 µM (inactive)

Compound: CCCCC1=NN2C(=N)CC(=O)N=C2S1
- AC50 [3]: 25.1 µM (inconclusive)
- AC50 [6]: 2.51 µM (inconclusive)

Compound: CCOC(=O)CSc1nnc(Cc2cc(O)nc(O)n2)n1-c1cccc(OC)c1
- AC50 [4]: inconclusive
- AC50 [5]: 22.4 µM (inconclusive)

Compound: CCC(C)Nc1nc(OCC(F)(F)F)nc(OCC(F)(F)F)n1 (stereo not drawn)
- AC50 ([4]; read-out: AC50): 3.16 µM (inconclusive)

Compound: COC(=O)N/N=C/c1ccc(/C=N/NC(=O)OC)cc1
- EC50 [1]: > 195 µM (not active)
